In patent US20050148069A1, “IGF-1 instructs multipotent adult CNS neural stem cells to an oligodendroglial lineage” (priority 2003, published 2005):

What was measured:
[1] = test system: multipotent neural progenitor cells derived from the whole brain of P10 ICR mice; experiment: differentiation of whole brain-derived multipotent neural progenitor cells; format: cell-based, mouse; settings: IGF-I treatment, primary cultures (unpublished data)
Experimental: The neural progenitor cells isolated from the hippocampus of female Fischer 344 used in this study have been characterized previously (Gage et al., 1995; Palmer et al., 1997). The whole brain-derived neural stem cells from PIO ICR mice were isolated and cultured according to the methods as described, with slight modifications. Cells were cultured as previously described (Gage et al., 1995; Ray et al., 1993). Cells between passages 10 and 20 were used for in vitro differentiation analyses. To induce differentiation, cells were plated into 4-well chamber slides at a density of 55,000-75,000 cells per well and were allowed to proliferate in N2-supplemented (Invitrogen) DMEM:F12 (Omega Scientific) medium containing 20 ng/ml FGF-2 (PeproTech, Inc.) for 24 hours. FGF-2 was then withdrawn and cells were subsequently treated with differentiation media. […] For IGF-induction experiments, cells were trypsinized, washed with 1× PBS, and plated into insulin-free N2 medium. Either human recombinant IGF-I or IGF-II (500 ng/ml; R&D Systems) or insulin (500 ng/ml; Sigma) was added for 4 days, except when indicated otherwise. In some cultures, BrdU (2.5 μM, Sigma) was added to label dividing cells, and Q-VD-OPh (2 μM, Enzyme Systems Products) was added to prevent apoptosis.

Noggin = experiment: quantitative real time PCR, Noggin expression; format: cell-based, rat; settings: 500 ng/ml IGF-I, up to 48 hours, normalized to GAPDH
Source text: (§1) If IGF-I induction of oligodendrocyte differentiation involves the inhibition of BMP signaling, a change in the expression of BMP antagonists after IGF-I treatment might be observed. In addition to extracellular antagonists of BMP signaling, such as Noggin, intracellular proteins that can interfere with downstream BMP receptor signaling, called inhibitory Smads (Smad6, 7), have also been identified (Christian and Nakayama, 1999). Therefore, we performed Q-PCR analyses of cultures treated with IGF-I after various time points (up to 48 hours) and examined the relative fold change (normalized to an internal control; see Methods) of Noggin, Smad6, 7 (FIG. 6, A-C). Expression of Noggin, Smad6, 7 increased by at least 6-, 5-, and 2-fold, respectively, after IGF-I treatment (p<0.05, t-test). There may be an unexplained downregulation of Smad6 at the 48-h time point.
(§2) Total RNA was isolated from cell cultures using RNeasy columns (Qiagen). For real-time quantitative PCR, reactions were carried out essentially as described (Zhao et al., 2001). The relative amount of the tested message was normalized to the level of the internal control message, GAPDH. […] Primer sequences are available upon request.

Smad7 = experiment: quantitative real time PCR, Smad7 expression; format: cell-based, rat; settings: 500 ng/ml IGF-I, up to 48 hours, normalized to GAPDH
Source text: as §1, §2

[2] = test system: adult hippocampus-derived neural progenitor cells; experiment: mathematical model of proliferation and differentiation rates; design: species or system rat; settings: 500 ng/ml IGF-I
Source text: Therefore, to separate the IGF-I effects on proliferation of progenitors from the instructive differentiation of progenitors to oligodendrocytes, we developed a mathematical model (as shown in FIG. 4A). This modeling approach has previously been used to quantify the effects of hippocampal astrocytes on the proliferation and neuronal differentiation of adult neural progenitor cells (Song et al., 2002). To distinguish the proliferation and differentiation rates, the model required that we count the number of RIP+ cells that were either positive or negative for BrdU at each time point. […] Because of this finding, we decided to separate the proliferation rate of RIP− (defined as α) and RIP+ cells (γ), as well as the differentiation rate (β) of RIP− to RIP+ cells. The overall death rate measured by Hoechst dye in live cultures could not be experimentally separated into a RIP− death rate (δ) and a RIP+ death rate (ε) (Song et al., 2002). Therefore, the model was bounded by the two possibilities that all cell death is from only RIP− or only RIP+ cells. We also considered the more probable assumption that the death rates for both RIP− and RIP+ cells were equal.
Six equations were used to derive values for these rates. The first equation describes the differential gain in RIP− cells: dN^RIP−/dt=(α−δ)N^RIP−−βN^RIP− (b 1) where N^RIP−is the number of RIP− cells, α is the proliferation rate of RIP− cells (per 12-h interval), β is the differentiation rate of RIP− into RIP+ cells, and δ is the death rate of RIP− cells. Similarly for RIP+ cells, dN^RIP+/dt=(γ−ε)N^RIP++βN^RIP− (2) where N^RIP+ is the number of RIP+ cells, […] is a proliferation rate of RIP+ cells, and ε is the RIP+ death rate. The sum of (1) and (2) is the equation defining total cell count: dN^Total/dt=(α−δ)N^RIP−+(γ−ε)N^RIP+ (3)
The time-course experiments were performed in 12-h intervals, allowing for measurement of the proliferation and differentiation rates at each 12-h time interval—αi is the proliferation rate of RIP− cells at time ‘i’ and so forth. […]

IGF-I: human recombinant IGF-I (R&D Systems), growth factor polypeptide
differentiation into oligodendrocytes [1]: exhibited a preferential differentiation into oligodendrocytes | relative fold change of Noggin expression (Noggin): at least 6 fold | relative fold change of Smad7 expression (Smad7): ≥ 2 fold | differentiation rate (β) of RIP− to RIP+ cells [2]: increase in differentiation rate | proliferation rate (γ) of RIP+ cells [2]: increase in the proliferation rate | proliferation rate of RIP− cells (α) [2]: no increase in the proliferation rate of RIP− cells
